Data set [1] deals with cytomegalovirus retinitis. Conditions: intravenous, 7.5 to 15 mg per kilogram per day; patients with cytomegalovirus retinitis; cited from earlier work.
For data set [2], the system named is white blood cell (WBC) count. As to conditions: for WBC (per cm³): GM-CSF 0 µg/kg. The source says:
A person was diagnosed as having AIDS and CMV retinitis. […]

Where two headings read alike, the source gives them in different places.

As for `Nc1nc(O)c2ncn(COC(CO)CO)c2n1` [DHPG, 9-(1,3-dihydroxy-2-propoxymethyl) guanine], the “major adverse effect of DHPG therapy” value in data set [1] is listed as “dose related myelosuppression, especially neutropenia”. Also, the “WBC (per cm³)” value is on record as 1000 per cm³ in data set [2] (Example 1, person, Day 0, % dose of DHPG changed to 50); 700 per cm³ in data set [2] (Example 1, Day 29, % dose of DHPG changed to 50); 300 per cm³ in data set [2] (Example 1, Day 34, % dose of DHPG changed to 0); 1900 per cm³ in data set [2] (Example 1, Day 49 (DHPG at 0 % since Day 34), % dose of DHPG changed to 100); 700 per cm³ in data set [2] (Example 1, Day 52, % dose of DHPG changed to 50). Besides, in data set [2] (Example 1, DHPG commenced at Day 0), the “result of DHPG treatment (adverse effect)” value is given as “life threatening myelosuppression”.

Values taken from patent publication EP0370656A1, “Treatment of myelosuppression associated with acquired immune deficiency” (SCHERING CORPORATION, priority 1988, dated 1990).
